The text below walks through data of article PMC3242765, “Inhibitors of Alphavirus Entry and Replication Identified with a Stable Chikungunya Replicon Cell Line and Virus-Based Assays” (PLoS ONE, 2011).

The subject of assay [1] is CHIKV replicon. Put plainly: microbe, parasite or virus in culture. The format is cell-based, Chikungunya virus (CHIKV).
Assay [2] relates to SFV-Rluc. To be noted: for SFV replication % left: primary screening of chemical libraries, compounds tested at 50 µM; for % left (remaining SFV replication): Supplementary Table 2, moderately active compounds (25 - 60% remaining), primary screen at 50 µM.

Values joined by “and” are separate entries in the source; they are usually repeats but may differ in a detail not shown here. Equal entries are not always repeated. Structures can show the parent of a compound that is named as a salt.

On to `COc1ccc2c(C)cc(=O)oc2c1` [7-Methoxy-4-methylcoumarin], for which, in assay [1], the “CHIKV replicon % left” value came out at 100.6%. Besides, the “SFV replication % left (surviving fraction, remaining percentage of SFV replication)” value in assay [2] is on record as 72.2%.
For `CC(C)(C)NCC(O)c1ccc(O)c(CO)c1` (stereo not shown) [Salbutamol], in that order: 78.4% and 151.4%.
For `CCC1(CC)C(=O)NC(=O)NC1=O` [Barbital], in that order: 106.1% and 64.7%.
`COc1cc(NS(=O)(=O)c2ccc(N)cc2)nc(OC)n1` [Sulfadimethoxine]: in assay [1], the “CHIKV replicon % left” value stood at 39.1%. Also, in assay [2], the “SFV replication % left (surviving fraction, remaining percentage of SFV replication)” value is reported as 102.4%.
In the case of `O=c1ccc2ccc(O)c(O)c2o1` [Daphnetin], in assay [1], the “CHIKV replicon % left” value is 103.7% and 92.1%. In assay [2], the “SFV replication % left (surviving fraction, remaining percentage of SFV replication)” value was 90.6% and 81.7%.
Take `O=C1CN=C(c2ccccc2)c2cc([N+](=O)[O-])ccc2N1` [Nitrazepam]: the “CHIKV replicon % left” value in assay [1] was 98.8%. The “SFV replication % left (surviving fraction, remaining percentage of SFV replication)” value in assay [2] is 46.0%.
In the same order, the values of `Oc1c(I)cc(Cl)c2cccnc12` [Clioquinol] are 32.7% and 71.9%.
For `CCCCOC(=O)c1ccc(N)cc1` [Butyl 4-Aminobenzoate], in that order: 102.7% and 76.6%.
For `COc1cc(-c2oc3cc(O)cc(O)c3c(=O)c2O)ccc1O` [Isorhamnetin], in that order: 19.3% and 28.9%.
In the case of `O=C(O)Cc1ccccc1O` [2-Hydroxyphenylacetic acid], the “CHIKV replicon % left” value in assay [1] stood at 14.3%. Further, the “SFV replication % left (surviving fraction, remaining percentage of SFV replication)” value in assay [2] amounted to 7.3%.
Consider `COc1cc(O)c2c(=O)c(O)c(-c3ccc(O)c(O)c3)oc2c1` [Rhamnetin], for which the “CHIKV replicon % left” value in assay [1] worked out at 94.7%. In addition, the “SFV replication % left (surviving fraction, remaining percentage of SFV replication)” value in assay [2] is on record as 119.1%.
As for `CC(C)(C)NC[C@H](O)COc1ccccc1C1CCCC1` [Penbutolol], in assay [1], the “CHIKV replicon % left” value was found to be 39.4%. The “SFV replication % left (surviving fraction, remaining percentage of SFV replication)” value in assay [2] was 45.0%.
In the same order, the values of `O=C(O)c1cc(-c2ccccc2)nc2ccccc12` [Cinchophen] are 51.2% and 65.1%.
In the case of `CN(C)CCCN1c2ccccc2Sc2ccc(Cl)cc21` [Chlorpromazine hydrochloride], the “CHIKV replicon % left” value in assay [1] worked out at 105.4%.
Still for that read-out and setting: next, `C[C@H](C(=O)O)c1cccc(C(=O)c2ccccc2)c1.C[C@H](C(=O)O)c1cccc(C(=O)c2ccccc2)c1`: 99.6%.
As to `O=c1cc(-c2ccc(O)c(O)c2)oc2cc(O[C@@H]3O[C@H](CO)[C@@H](O)[C@H](O)[C@H]3O)cc(O)c12` [NC-062], in assay [2], the “SFV replication % left” value worked out at 17.8%.
Take `O=c1c(-c2ccc(O)cc2)coc2cc(O)ccc12` [NC-020]: in assay [2], the “SFV replication % left” value amounted to 76.6%.
For the compound `CN(C)CCC=C1c2ccccc2COc2ccccc21.Cl` [PC-070], the “SFV replication % left” value in assay [2] is listed as 21.6%.
For `C=CCC(=NOS(=O)(=O)[O-])SC1OC(CO)C(O)C(O)C1O.O.[K+]` (stereo not shown) [NC-096], in assay [2], the “% left (remaining SFV replication)” value is recorded as 47.6% and the “SFV replication % left” value was found to be 47.6%.
`O=C1C[C@@H](c2ccc(O)cc2)Oc2cc(O)cc(O)c21` [NC-069]: in assay [2], the “SFV replication % left” value was -0.0736%.
The same measure, in the same setting: then `Oc1ccc(C(O)CNCCCCCCNCC(O)c2ccc(O)c(O)c2)cc1O` (stereo not shown) [PC-088], with 124.9%.
With `O=c1c(-c2ccc(O)cc2)coc2cc(O)cc(O)c12` [NC-042], in assay [2], the “% left (remaining SFV replication)” value is listed as 45.6% and the “SFV replication % left” value is on record as 45.6%.
Turning to `O=c1cc(C(F)(F)F)c2cc3c4c(c2o1)CCCN4CCC3` [NC-131], the “SFV replication % left” value in assay [2] is 52.6%.
As to `CCC1(c2ccccc2)C(=O)NC(=O)NC1=O` [PC-153], the “SFV replication % left (surviving fraction, remaining percentage of SFV replication)” value in assay [2] worked out at 58.6%.
Take `NC(=O)N1c2ccccc2C=Cc2ccccc21` [PC-037]: in assay [2], the “% left (remaining SFV replication)” value is recorded as 57.3% and the “SFV replication % left” value was found to be 57.2%.
`CC(C)Cc1ccc(CC(=O)O)cc1` [PC-098]: in assay [2], the “SFV replication % left” value amounted to 102.2%.
On the same count and under the same terms, next, `CCOC(=O)c1ccc(N)cc1` [PC-023]: 43.4%; `C[C@@H]1O[C@@H](O[C@H]2C[C@@H](O)[C@]3(CO)[C@H]4[C@H](O)C[C@]5(C)[C@@H](C6=CC(=O)OC6)CC[C@]5(O)[C@@H]4CC[C@]3(O)C2)[C@H](O)[C@H](O)[C@H]1O` [PC-140]: 90.9%; `O=c1cc(-c2ccccc2)oc2cc(O)cc(O)c12` [NC-013]: 18.1%.
Same read-out and setting: then `Oc1ccc(C=Cc2cc(O)cc(O)c2)cc1` [NC-086], with 103.4%.
For `CCC(N)C(O)c1ccc(O)c(O)c1` (stereo not shown) [PC-076], the “SFV replication % left” value in assay [2] was determined as 126.8%.
For the compound `Cc1ccc(O)c(O)c1` [NC-070], in assay [2], the “SFV replication % left” value amounted to 111.1%.
The same measure, in the same setting: next, `O=C(O)c1cc2cc(Br)cc(Br)c2oc1=O` [NC-125]: 67.4%; `CC(=O)NS(=O)(=O)c1ccc(N)cc1` [PC-005]: 63.2%; `CN1C(=O)CN=C(c2ccccc2)c2cc(Cl)ccc21` [PC-060]: 73.6%.
With `N[C@@H](Cc1ccc(O)c(O)c1)C(=O)O` [PC-007], in assay [2], the “SFV replication % left” value came out at 43.6%.
Take `Oc1cc(O)c2c(c1)OC(c1ccc(O)c(O)c1)C(O)C2O` (stereo not shown) [NC-060]: the “SFV replication % left” value in assay [2] is on record as 136.3%.
As to `Cc1cc(=O)oc2c3c4c(cc12)CCCN4CCC3` [NC-015], in assay [2], the “% left (remaining SFV replication)” value was determined as 34.6% and the “SFV replication % left” value is reported as 34.6%.
Turning to `COCCc1ccc(OCC(O)CNC(C)C)cc1.COCCc1ccc(OCC(O)CNC(C)C)cc1.O=C(O)C(O)C(O)C(=O)O` (stereo not shown) [PC-122], in assay [2], the “SFV replication % left” value amounted to 65.7%.
On the same count and under the same terms, then `CCN(CC)C(C)CN1c2ccccc2Sc2ccccc21.Cl` (stereo not shown) [PC-074], with 20.1%; and `CCN(CC)C(=O)c1ccc(O)c(OC)c1` [PC-073], with 85.5%.
As for `Oc1cc(O)c2c(c1)O[C@H](c1cc(O)c(O)c(O)c1)[C@H](O)C2` [NC-036], in assay [2], the “SFV replication % left” value is recorded as 101.9%.
On the same count and under the same terms, next, `COc1cc2ccc(=O)oc2c(O)c1OC` [NC-111]: 77.8%; `COc1c2ccoc2cc2oc(=O)ccc12` [NC-008]: 46.8%; `Cc1cc(C(C)(C)C)c(O)c(C(C)(C)C)c1` [NC-107]: 72.6%.
Take `CC(Cc1ccc2c(c1)OCO2)NCC(O)c1ccc(O)c(O)c1.Cl` (stereo not shown) [PC-177]: the “SFV replication % left (surviving fraction, remaining percentage of SFV replication)” value in assay [2] came to 128.4%.
With `COc1cc(/C=C/C(=O)O)ccc1O` [NC-039], the “SFV replication % left” value in assay [2] was determined as 63.4%.
Same read-out and setting: next, `CC(C)Cc1ccc(C(C)C(=O)O)cc1` (stereo not shown) [PC-099]: 92.8%; `Oc1cc(O)c2c(c1)O[C@H](c1ccc(O)c(O)c1)[C@H](O)[C@H]2c1c(O)cc(O)c2c1O[C@H](c1ccc(O)c(O)c1)[C@@H](O)C2` [NC-074]: 128.1%; `C[C@H](N)[C@H](O)c1cccc(O)c1.O=C(O)C(O)C(O)C(=O)O` [PC-114]: 96.5%.
On the same count and under the same terms, next, `Nc1ccc(Cl)cc1C(=O)c1ccccc1F` [PC-083]: 167.4%; `COc1c2occc2c(OC)c2c(=O)cc(C)oc12` [NC-058]: 120.6%.
The same measure, in the same setting: then `O=C(O)[C@]1(O)C[C@@H](O)[C@@H](O)[C@H](O)C1` [NC-084], with 98.2%.
Regarding `C[C@H]1O[C@@H](O[C@H]2[C@@H](O)C[C@H](O[C@H]3[C@@H](O)C[C@H](O[C@H]4CC[C@@]5(C)[C@H](CC[C@@H]6[C@@H]5C[C@@H](O)[C@]5(C)[C@@H](C7=CC(=O)OC7)CC[C@]65O)C4)O[C@@H]3C)O[C@@H]2C)C[C@H](O)[C@@H]1O` [PC-065], the “SFV replication % left” value in assay [2] stood at 141.9%.
As to `O=C(O)c1ccccc1C(=O)O` [NC-073], in assay [2], the “SFV replication % left” value stood at 143.7%.
Consider `Oc1ccc(O)cc1` [NC-053], for which the “SFV replication % left” value in assay [2] is given as 16.9%.
As for `Cc1cc(=O)n(-c2ccccc2)n1C` [PC-015], the “SFV replication % left” value in assay [2] stood at 60.1%.
Consider `CN1[C@@H]2CC[C@H]1C[C@@H](OC(=O)C(O)c1ccccc1)C2` (stereo partly shown) [Homatropine hydrobromide], for which the “CHIKV replicon % left” value in assay [1] was found to be 100.4%.
Take `CNC(C)C(O)c1ccc(O)cc1` (stereo not shown) [PC-094]: the “SFV replication % left” value in assay [2] is 94.4%.
Same read-out and setting: next, `CN1CCCCC1CCN1c2ccccc2Sc2ccc([S+](C)[O-])cc21.O=S(=O)(O)c1ccccc1` (stereo not shown) [PC-113]: 93.8%; `CCOc1ccc2c(c1)C(C)=CC(C)(C)N2` [NC-038]: 96.4%; `O=c1ccc2ccccc2o1` [NC-018]: 68.8%.
Same read-out and setting: then `CC(=O)Nc1ccc(O)cc1` [PC001-], with 63.5%; and `CC(C)(C)NCC(O)COc1ccccc1C#N` (stereo not shown) [PC-026], with 40.7%.
Turning to `CCCCNC(=O)c1ccc(Cl)cc1O` [PC-025], the “SFV replication % left” value in assay [2] came to 49.6%.
Regarding `CCN(CC)C(C)C(=O)c1ccccc1.Cl` (stereo not shown) [PC-064], in assay [2], the “SFV replication % left” value amounted to 47.1%.
Regarding `Cl.Cl.OCCOCCN1CCN(C(c2ccccc2)c2ccc(Cl)cc2)CC1` (stereo not shown) [PC-097], the “SFV replication % left” value in assay [2] is given as 98.3%.
On the same count and under the same terms, next, `O=C1CC(=O)NC(=O)N1` [PC-021]: 48.8%; `C#C[C@]1(O)CC[C@H]2[C@@H]3CCc4cc(O)ccc4[C@H]3CC[C@@]21C` [PC-077]: 11.7%.
On the same count and under the same terms, next, `CS(=O)(=O)OCCCCOS(C)(=O)=O` [PC-028]: 51.8%.
Still for that read-out and setting: next, `CN1CCCCC1CCN1c2ccccc2Sc2ccc([S+](C)[O-])cc21` (stereo not shown) [NC-123]: 131.1%.
